Source: patent US11465993B2, “Water soluble novel cyanine fluorophore with tunable properties between near IR and SWIR region for in vivo imaging” (The USA, as represented by the Secretary, Department of …, priority 2018, dated 2022)

Experiments:
[1] = Solubility and aggregation in PBS, serum or organic solvent; settings: for aggregation: PBS and serum; for solubility: medium as stated in the value
[2] = Emission (fluorescence) spectra of cyanine fluorophores in different solvents
[3] = Absorbance spectra of cyanine fluorophores in different solvents (absorbance maximum, molar absorptivity)
[4] = pH 7.4 PBS, excitation wavelength per compound (figure legends)
[5] = pH 7.4 PBS, at wavelength of maximum absorbance

Q: What does the source list for `CC1(C)C(/C=C/C2=C3Oc4ccc(C(=O)O)cc4OC4=C3C(CC2)CC/C4=C\C=C2\N(CCCCS(=O)(=O)[O-])c3ccc(S(=O)(=O)[O-])cc3C2(C)C)=[N+](CCCCS(=O)(=O)[O-])c2ccc(S(=O)(=O)[O-])cc21.[Na+].[Na+].[Na+]` (centres unmarked) [Compound 6]?
A: aggregation [1]: only moderate aggregation; emission maximum (λmax, emiss) ([2]; 10% (v/v) FBS in pH 7.4 PBS): 896 nm; emission maximum (λmax, emiss) ([2]; methanol): 896 nm; emission maximum (λmax, emiss) [2, 4]: 896 nm; absorbance maximum (λmax, abs) ([3]; 10% (v/v) FBS in pH 7.4 PBS): 868 nm; molar absorptivity (ε) ([3]; 10% (v/v) FBS in pH 7.4 PBS): 192,000 M^−1cm^−1; absorbance maximum (λmax, abs) ([3]; methanol): 866 nm; molar absorptivity (ε) ([3]; methanol): 208,000 M^−1cm^−1; absorbance maximum (λmax, abs) ([3]; pH 7.4 PBS): 860 nm; molar absorptivity (ε) [3, 5]: 191,000 M^−1cm^−1

Q: Which aggregation [1] does the source give for `CC1(C)C(/C=C/C2=C3Oc4ccc(C(=O)N(CCCS(=O)(=O)O)CCC(=O)O)cc4OC4=C3C(CC2)CC/C4=C\C=C2\N(CCCCS(=O)(=O)O)c3ccc(S(=O)(=O)[O-])cc3C2(C)C)=[N+](CCCCS(=O)(=O)O)c2ccc(S(=O)(=O)O)cc21.N.N.N.N` (centres unmarked) [Compound 10] here?
A: The aggregation was “eliminated aggregation in both PBS and serum”.

Q: What about the “emission maximum (λmax, emiss)” value ([2]; 10% (v/v) FBS in pH 7.4 PBS) of the same compound?
A: The value was 900 nm.

Q: And the “emission maximum (λmax, emiss)” value ([2]; methanol)?
A: Its value is 896 nm.

Q: What about the “emission maximum (λmax, emiss)” value [2, 4] of the same compound?
A: Its value is 896 nm.

Q: What about the “absorbance maximum (λmax, abs)” value ([3]; 10% (v/v) FBS in pH 7.4 PBS) of the same compound?
A: The value was 871 nm.

Q: And the “molar absorptivity (ε)” value ([3]; 10% (v/v) FBS in pH 7.4 PBS)?
A: Its value is 137,000 M^−1cm^−1.

Q: What about the “absorbance maximum (λmax, abs)” value ([3]; methanol) of the same compound?
A: The value was 869 nm.

Q: What about the “molar absorptivity (ε)” value ([3]; methanol) of the same compound?
A: Its value is 187,000 M^−1cm^−1.

Q: And the “absorbance maximum (λmax, abs)” value ([3]; pH 7.4 PBS)?
A: Its value is 862 nm.

Q: And the “molar absorptivity (ε)” value [3, 5]?
A: Its value is 145,000 M^−1cm^−1.

Q: For `CN1/C(=C/C=C2\CCC3CCC(/C=C/C4=[N+](C)c5ccccc5C4(C)C)=C(Cl)C3=C2Cl)C(C)(C)c2ccccc21` (centres unmarked) [N-methyl-NIR-990], which solubility [1] is on record?
A: The solubility was “organic soluble”.

Q: And the “emission maximum (λmax, emiss)” value ([2]; dichloromethane)?
A: The value was 990 nm.

Q: What about the “emission maximum (λmax, emiss)” value ([2]; methanol) of the same compound?
A: Its value is 960 nm.

Q: What about the “absorbance maximum (λmax, abs)” value ([3]; dichloromethane) of the same compound?
A: Its value is 940 nm.

Q: What about the “molar absorptivity (ε)” value ([3]; dichloromethane) of the same compound?
A: The value was 134,658 M^−1cm^−1.

Q: And the “absorbance maximum (λmax, abs)” value ([3]; methanol)?
A: Its value is 922 nm.

Q: And the “molar absorptivity (ε)” value ([3]; methanol)?
A: Its value is 46,886 M^−1cm^−1.

Q: With `CN1/C(=C/C=C2\CCC3CCC(C=O)=C4C3=C2c2ccccc24)C(C)(C)c2ccccc21` (centres unmarked) [Compound 23] as the compound, how does the “emission maximum (λmax, emiss)” value ([2]; acetonitrile) read?
A: The value was 780 nm.

Q: And the “absorbance maximum (λmax, abs)” value ([3]; acetonitrile)?
A: Its value is 600 nm.

Q: For `CCCC/N=C/C1=C2C3=C(/C(=C/C=C4/N(C)c5ccccc5C4(C)C)CCC3CC1)c1ccccc12` (centres unmarked) [Compound 26], which “emission maximum (λmax, emiss)” value ([2]; 0.1% formic acid in acetonitrile, excitation at 800 nm) is on record?
A: The value was 906 nm.

Q: What about the “emission maximum (λmax, emiss)” value ([2]; acetonitrile) of the same compound?
A: Its value is 720 nm.

Q: And the “absorbance maximum (λmax, abs)” value ([3]; 0.1% formic acid in acetonitrile)?
A: Its value is 872 nm.

Q: And the “absorbance maximum (λmax, abs)” value ([3]; acetonitrile)?
A: The value was 540 nm.

Q: Which “emission maximum (λmax, emiss)” value ([2]; methanol) does the source give for `CN1/C(=C/C=C2\CCC3CCC(/C=C/C4=[N+](C)c5ccccc5C4(C)C)=C4C3=C2c2ccccc24)C(C)(C)c2ccccc21` (centres unmarked) [Compound 25] here?
A: Its value is 1110 nm.

Q: And the “absorbance maximum (λmax, abs)” value ([3]; methanol)?
A: Its value is 1066 nm.

Q: For `CC1(C)C(/C=C/C2=C3C4=C(/C(=C/C=C5/N(CCCCS(=O)(=O)O)c6ccc(S(=O)(=O)[O-])cc6C5(C)C)CCC4CC2)c2cc(C(=O)O)ccc23)=[N+](CCCCS(=O)(=O)O)c2ccc(S(=O)(=O)O)cc21.N.N.N` (centres unmarked) [Compound 8], which solubility [1] is on record?
A: Its solubility is “water-soluble”.

Q: What about the “emission maximum (λmax, emiss)” value ([2]; 10% (v/v) FBS in pH 7.4 PBS) of the same compound?
A: Its value is 1086 nm.

Q: And the “emission maximum (λmax, emiss)” value ([2]; methanol)?
A: The value was 1103 nm.

Q: What about the “emission maximum (λmax, emiss)” value [2, 4] of the same compound?
A: Its value is 1084 nm.

Q: And the “absorbance maximum (λmax, abs)” value ([3]; 10% (v/v) FBS in pH 7.4 PBS)?
A: The value was 1062 nm.

Q: What about the “molar absorptivity (ε)” value ([3]; 10% (v/v) FBS in pH 7.4 PBS) of the same compound?
A: The value was 99,000 M^−1cm^−1.

Q: And the “absorbance maximum (λmax, abs)” value ([3]; methanol)?
A: Its value is 1072 nm.

Q: What about the “molar absorptivity (ε)” value ([3]; methanol) of the same compound?
A: The value was 117,000 M^−1cm^−1.

Q: And the “absorbance maximum (λmax, abs)” value ([3]; pH 7.4 PBS)?
A: The value was 1058 nm.

Q: What about the “molar absorptivity (ε)” value [3, 5] of the same compound?
A: The value was 70,000 M^−1cm^−1.

Q: With `CC1(C)C(/C=C/C2=C3Sc4ccccc4SC4=C3C(CC2)CC/C4=C\C=C2\N(CCCCS(=O)(=O)[O-])c3ccc(S(=O)(=O)[O-])cc3C2(C)C)=[N+](CCCCS(=O)(=O)[O-])c2ccc(S(=O)(=O)[O-])cc21.[Na+].[Na+].[Na+]` (centres unmarked) [NIR-950] as the compound, how does the “emission maximum (λmax, emiss)” value ([2]; 10% (v/v) FBS in pH 7.4 PBS) read?
A: Its value is 955 nm.

Q: What about the “emission maximum (λmax, emiss)” value ([2]; methanol) of the same compound?
A: The value was 960 nm.

Q: And the “emission maximum (λmax, emiss)” value [2, 4]?
A: The value was 950 nm.

Q: And the “absorbance maximum (λmax, abs)” value ([3]; 10% (v/v) FBS in pH 7.4 PBS)?
A: Its value is 902 nm.

Q: What about the “molar absorptivity (ε)” value ([3]; 10% (v/v) FBS in pH 7.4 PBS) of the same compound?
A: Its value is 128,000 M^−1cm^−1.

Q: And the “absorbance maximum (λmax, abs)” value ([3]; methanol)?
A: Its value is 890 nm.

Q: What about the “molar absorptivity (ε)” value ([3]; methanol) of the same compound?
A: The value was 193,000 M^−1cm^−1.

Q: And the “absorbance maximum (λmax, abs)” value ([3]; pH 7.4 PBS)?
A: Its value is 880 nm.

Q: What about the “molar absorptivity (ε)” value [3, 5] of the same compound?
A: The value was 79,000 M^−1cm^−1.

Q: With `CC1(C)C(/C=C/C2=C3Oc4ccccc4OC4=C3C(CC2)CC/C4=C\C=C2\N(CCCCS(=O)(=O)[O-])c3ccccc3C2(C)C)=[N+](CCCCS(=O)(=O)[O-])c2ccccc21.[Na+]` (centres unmarked) [BisSO3-NIR-890] as the compound, how does the “emission maximum (λmax, emiss)” value ([2]; 10% (v/v) FBS in pH 7.4 PBS) read?
A: The value was 900 nm.

Q: What about the “emission maximum (λmax, emiss)” value ([2]; methanol) of the same compound?
A: Its value is 890 nm.

Q: What about the “emission maximum (λmax, emiss)” value [2, 4] of the same compound?
A: The value was 890 nm.

Q: What about the “absorbance maximum (λmax, abs)” value ([3]; 10% (v/v) FBS in pH 7.4 PBS) of the same compound?
A: Its value is 877 nm.

Q: And the “molar absorptivity (ε)” value ([3]; 10% (v/v) FBS in pH 7.4 PBS)?
A: The value was 187,000 M^−1cm^−1.

Q: And the “absorbance maximum (λmax, abs)” value ([3]; methanol)?
A: Its value is 860 nm.

Q: And the “molar absorptivity (ε)” value ([3]; methanol)?
A: The value was 275,000 M^−1cm^−1.

Q: And the “absorbance maximum (λmax, abs)” value ([3]; pH 7.4 PBS)?
A: Its value is 689 nm.

Q: Which “emission maximum (λmax, emiss)” value ([2]; 10% (v/v) FBS in pH 7.4 PBS) does the source give for `CC1(C)C(/C=C/C2=C3Oc4ccc(CCC(=O)O)cc4OC4=C3C(CC2)CC/C4=C\C=C2\N(CCCCS(=O)(=O)[O-])c3ccc(S(=O)(=O)[O-])cc3C2(C)C)=[N+](CCCCS(=O)(=O)[O-])c2ccc(S(=O)(=O)[O-])cc21.[Na+].[Na+].[Na+]` (centres unmarked) [NIR-900-Et] here?
A: The value was 900 nm.

Q: What about the “emission maximum (λmax, emiss)” value ([2]; methanol) of the same compound?
A: The value was 890 nm.

Q: What about the “emission maximum (λmax, emiss)” value [2, 4] of the same compound?
A: The value was 900 nm.

Q: And the “absorbance maximum (λmax, abs)” value ([3]; 10% (v/v) FBS in pH 7.4 PBS)?
A: Its value is 864 nm.

Q: What about the “molar absorptivity (ε)” value ([3]; 10% (v/v) FBS in pH 7.4 PBS) of the same compound?
A: Its value is 148,000 M^−1cm^−1.

Q: What about the “absorbance maximum (λmax, abs)” value ([3]; methanol) of the same compound?
A: The value was 860 nm.

Q: And the “molar absorptivity (ε)” value ([3]; methanol)?
A: The value was 253,000 M^−1cm^−1.

Q: What about the “absorbance maximum (λmax, abs)” value ([3]; pH 7.4 PBS) of the same compound?
A: Its value is 856 nm.

Q: And the “molar absorptivity (ε)” value [3, 5]?
A: The value was 172,000 M^−1cm^−1.
